The test system of test [1] is Han:sPRD rats and PKD1 knockout mice. As to conditions: cited from earlier work.
Test [2] deals with ADPKD-related pathway protein. Nature of the test: Western blot of ADPKD-related signaling pathway proteins in kidney tissue. The format is in vivo, mice. The text has this:
In order to further explore the therapeutic mechanism of SB290157 on polycystic kidney mice, the expression of ADPKD-related pathway protein was detected by Western blot.
(Immunoblotting shows a protein as a band on a membrane.)

Test [3] deals with Pkd1 conditional knockout mice. In words: F4/80 immunofluorescence staining, macrophage infiltration in kidney tissue of Pkd1 conditional knockout mice. The format is in vivo. Particulars: 1 mg/kg i.p. once a day; treatment group versus model control group. From the text:
F4/80 in the kidney tissues of the wild group, the model control group and the SB290157 treatment group were stained by immunofluorescence to compare the macrophage infiltration.

A further test relates to Pkd1 knockout mouse. Nature of the test: Apoptosis of cyst cells in Pkd1 knockout mouse. The class given is in vivo.
The subject of another test is Pkd1 knockout mice. In words: Effect of C3aR inhibitor SB290157 on cyst indexes and kidney function of Pkd1 knockout mice. The format is in vivo. The text has this:
Experimental animals: the animals used in this experiment were PKD1^flox/flox-Tamoxifen-Cre mice, gifted by professor Wüthrich RP, University of Zurich, Switzerland, and were bred in Specific Pathogen Free (SPF) Laboratory Animal Center of Naval Medical University [License No: SYXK (Shanghai): 2017-0004].
The blood creatinine, urea nitrogen, kidney/body weight, and cyst index of each group of mice were compared.
The main reagents used were a C3aR inhibitor (Calbiochem, SB290157, Germany), Creatinine Assay Kit (Nanjing Jiancheng Bioengineering Institute), Urea Nitrogen Assay Kit (Nanjing Institute of Built Bioengineering), and dimethyl sulfoxide (DMSO) (Amresco, 1963C070, USA).
Serum creatinine (μmol/L)=[(Sample A2-K*Sample A1)−(Blank A2-K*Blank A1)]/[(Standard A2-K*Standard A1)−(Blank A2-K*Blank A1)]*Standard Concentration; Formula:
Urea nitrogen (mmol/L)=(Assay OD−Blank OD)/(Standard OD−blank OD)*Standard Concentration (10 mmol/L)*Dilution multiple;
After HE staining, scanning was performed with a whole slide image scanner, and pictures were exported and saved using CaseViewer software. The total pixel value of the whole kidney in Photoshop software was calculated as A1, a cyst area was selected and calculated the total pixel value as A2, wherein the ratio of A2 to A1 is the cyst index.

For test [4], the system named is mouse cyst epithelial cells. Nature of the test: Ki67 immunohistochemical staining of kidney slices, proliferation of cyst epithelial cells. The class given is in vivo, mice. Particulars: treatment group versus model control group. The procedure: In order to explore whether the proliferation of mouse cyst epithelial cells was restricted after treatment, immunohistochemical staining for Ki67 was performed on kidney slices of each group of mice, wherein Ki67 was a nuclear protein that could reflect the cell proliferation level.

Test [5] deals with RAW264.7 cells. Nature of the test: C3a stimulation of macrophages, Western blot of p-Akt, p-ERK, p-P65, p-STAT1 and TNF-α. Particulars: 24 hours. The format is cell-based, Murine. The procedure:
In order to explore the mechanism of pro-inflammatory effects of C3a-C3aR on M1-type macrophages, RAW264.7 cells were divided into 4 groups with LPS as a stimulation factor and C3a as an intervention factor: (1) a control group (without any stimulation); (2) a C3a (100 ng/ml) stimulation group; (3) a LPS (100 ng/ml) stimulation group; (4) a C3a (100 ng/ml)+LPS (100 ng/ml) stimulation group. After 24 hours, cell proteins in each group were extracted, and Western blot was used for detecting the expression of p-Akt, p-ERK, p-P65, p-STAT1 and TNF-α. […] Akt and ERK may regulate the apoptosis and proliferation of M1-type macrophages, while NF-κB and STAT1 was an important signaling pathway for polarization and related inflammation of M1-type macrophage. Therefore, it is speculated that C3a-C3aR may promote the activation of Akt, ERK, STAT1 and NF-κB pathway in M1-type macrophages, and then promote the secretion of TNF-α inflammatory factors by M1-type macrophages.

Test [6] has as its system RAW264.7 cells. Nature of the test: C3a stimulation of macrophages, RT-PCR of iNOS, TNF-α and IL-6 mRNA. The class given is cell-based, Murine. As to conditions: 24 hours. The procedure: (§1) The C3aR expression on the cell surface affected the sensitivity of downstream signals induced by C3a, so C3a-C3aR should act mainly on M1-type macrophages, which was consistent with the downstream pro-inflammatory effect. To verify the effect of C3a stimulation on the expression of M1-type macrophage inflammatory factor, RAW264.7 cells were divided into 5 groups: (1) a control group: without any stimulation; (2) a LPS group: stimulated with 100 ng/ml LPS; (3) a LPS+C3a group: stimulated with 100 ng/ml LPS+100 ng/ml C3a; (4) a IL-4 group: stimulated with 20 ng/ml IL-4; (5) a IL-4+C3a group: stimulated with 20 ng/ml IL-4+100 ng/ml C3a. After 24 hours, cell RNA was extracted, and RT-PCR was used for detecting iNOS, TNF-α and IL-6 mRNA level in each group of cells, wherein the primer sequence used by RT-PCR was as follows: iNOS primer sequence Mouse F: 5′-[…]-3′ (SEQ ID NO:9), Mouse R: 5′-[…]-3′ (SEQ ID NO:10), IL-6 primer sequence Mouse F: 5′-[…]-3′ (SEQ ID NO:11), Mouse R: 5′-[…]-3′ (SEQ ID NO:12), TNF-α primer sequence Mouse F: 5′-GGCATGGATCTCAAAGACA-3′ (SEQ ID NO:13), Mouse R: 5′-TGGGCTCATACCAGGGTT-3′ (SEQ ID NO:14).

In test [7] the test system is RAW264.7 cells. Nature of the test: TNF-α level in macrophage culture supernatants by Elisa. The class given is cell-based, Murine. As to conditions: culture supernatant, after C3a stimulation. The procedure: as §1
The TNF-α level in the culture supernatants of macrophages from different treatment groups were detected by Elisa. […]

The mark [8] stands for this setting: treatment group compared to model control group.
The mark [9] stands for this setting: treatment group compared with model control group.
The mark [10] stands for this setting: M1-type macrophages, C3a 100 ng/ml + LPS 100 ng/ml.
The mark [11] stands for this setting: M1-type macrophages (100 ng/ml LPS) + 100 ng/ml C3a.

Take `[Cl][Co][Cl]` [cobalt chloride]: in [1], the “growth of kidney cysts” value is “inhibit”, the “infiltration of kidney interstitial macrophages” value is listed as “significantly reduce” and the kidney function result was “improve”.

Consider `O=C(/C=C/c1ccc(O)c(O)c1)O[C@H](Cc1ccc(O)c(O)c1)C(=O)O` [rosmarinic acid], for which, in test [1], the “growth of kidney cysts” value is given as “inhibit”, the “infiltration of kidney interstitial macrophages” value is listed as “significantly reduce” and the kidney function entry was “improve”.

With `N=C(N)NCCCC(NC(=O)COCC(c1ccccc1)c1ccccc1)C(=O)O` (stereo not drawn) [SB290157], in test [2], the C3aR level result was “reduced”. In test [2] (setting [8]), the “expression of p-Akt protein” value is given as “down-regulated”, the “expression of p-ERK protein” value is recorded as “down-regulated” and the “expression of p-P65 protein” value is given as “down-regulated”. Further, the “positive rate of F4/80 in the kidney tissue (macrophage infiltration)” value in test [3] is recorded as “significantly lower”. In the test with Pkd1 knockout mouse, the apoptosis entry is on record as “increasing”. For the same compound, the “double kidney weight/body weight ratio (2KW/BW)” value in the test on Pkd1 knockout mice (Pkd1 knockout mice, 1 mg/kg i.p. once a day, day 28, model control 0.112±0.006, wild 0.012±0.000) stood at 0.043±0.007. The same compound yielded a blood urea nitrogen in the test with Pkd1 knockout mice (Pkd1 knockout mice, 1 mg/kg i.p. once a day, day 28, model control 80.4±6.0, wild 6.8±0.7) of 26.3 ± 6.5 mmol/L. This compound also gave a serum creatinine in the test with Pkd1 knockout mice (Pkd1 knockout mice, 1 mg/kg i.p. once a day, day 28, model control 90.0±3.6, wild 13.0±1.2 μmol/L) of 29.3±3.4 μm. The compound further yielded a cyst index in the test on Pkd1 knockout mice (Pkd1 knockout mice, 1 mg/kg intraperitoneal once a day from postnatal day 12, sacrificed day 28, model control 49.9±1.9%) of 35.3±1.9%. In addition, in the test on Pkd1 knockout mice (setting [9]), the “cyst area (HE staining)” value is recorded as “reduction” and the kidney volume entry is “reduced”. The “number of kidney Ki67 positive staining cells” value in test [4] is reported as “significantly lower”.

Regarding “C3a: produced by activation of complement C3; promotes inflammatory cell infiltration; used at 100 ng/ml to stimulate macrophages”, the “stimulatory effect on M0-type macrophages (p-Akt, p-ERK, p-P65, p-STAT1, TNF-α)” value in the test with RAW264.7 cells [5] (C3a 100 ng/ml alone) is “not significant”. Also, in the test with RAW264.7 cells [5] (setting [10]), the “expression of TNF-α protein” value is recorded as “further up-regulated”, the “expression of p-Akt protein” value was “further up-regulated”, the “expression of p-ERK protein” value is reported as “further up-regulated” and the “expression of p-P65 protein” value is given as “further up-regulated”. Besides, in the test on RAW264.7 cells [5] (setting [10]), the “expression of p-STAT1 protein” value is “further up-regulated”. Further, the “pro-inflammatory effect on M2-type macrophages” value with RAW264.7 cells [6] (20 ng/ml IL-4 + 100 ng/ml C3a) is “no significant pro-inflammatory effect”. Besides, in the test on RAW264.7 cells [6] (setting [11]), the “IL-6 mRNA level” value is reported as “remarkably up-regulated” and the “TNF-alpha mRNA level” value is recorded as “remarkably up-regulated”. In the test on RAW264.7 cells [6] (M1-type macrophages (100 ng/ml LPS) + 100 ng/ml C3a, versus LPS group), the “iNOS mRNA level” value is “up-regulated”. Besides, the “TNF-α level secreted by M1-type macrophages” value in the test on RAW264.7 cells [7] is given as “further increased”.
